Measured values: patent publication US12065445B2, “CDK2 inhibitors and methods of using the same” (Cedilla Therapeutics, Inc., priority 2021, dated 2024)

system: Kuramochi cells; assay: BrdU Cell Proliferation Assay; assay type: cell-based; details: read-out: BrdU - KURAMOCHI.1: IC50
Outline: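 Kuramochi cells were seeded at 2,000 cells/well, adhered overnight, then treated with a 10-point, 3-fold compound dilution series for 4 days. Proliferation was measured by a 1-hour BrdU pulse, anti-BrdU peroxidase colorimetric ELISA and 450 nm absorbance. Values were background-subtracted and normalized to DMSO wells.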

| SMILES | IC50 [µM] |
| --- | --- |
| CNC(=O)[C@@H](NC(=O)[C@H]1CN(C(=O)c2cnn(Cc3ccc(F)cc3)c2)CC12CN(C(=O)[C@H]1CC1(C)C)C2)[C@@H](C)OCc1ccc(F)cc1 [I-136B] | > 10 |
| CC1(C)C[C@@H]1C(=O)N1CC2(CN(C(=O)c3cnn(Cc4ccccc4)c3)C[C@H]2C(=O)Nc2ccc(Cc3ccccc3)nc2)C1 [I-139, (S)-6-(1-benzyl-1H-pyrazole-4-carbonyl)-N-(6-benzylpyridin-3-yl)-2-((S)-2,2-dimethylcyclopropane-1-carbonyl)-2,6-diazaspiro[3.4]octane-8-carboxamide] | > 10 |
| CC1(C)C[C@@H]1C(=O)N1CC2(CN(C(=O)c3cnn(Cc4ccccc4)c3)C[C@@H]2C(=O)N[C@H]2C[C@@H]2c2cccc(Cl)c2)C1 [I-140B] | > 10 |
| CNC(=O)[C@@H](NC(=O)[C@@H]1CN(C(=O)c2cnn(Cc3ccccc3)c2)CC12CN(C(=O)[C@H]1CC1(C)C)C2)[C@@H](C)OCC1CCC(C(F)(F)F)CC1 (stereo partly shown) [I-141A] | 0.5 to 5 |
| COC(=O)C1(NC(=O)[C@H]2CN(C(=O)c3cnn(Cc4ccccc4)c3)CC23CN(C(=O)[C@H]2CC2(C)C)C3)COC1 [I-142A] | > 10 |
| COC(=O)C1(NC(=O)[C@@H]2CN(C(=O)c3cnn(Cc4ccccc4)c3)CC23CN(C(=O)[C@H]2CC2(C)C)C3)COC1 [I-142B] | > 10 |
| CNC(=O)[C@@H](NC(=O)[C@H]1CN(Cc2n[nH]c3ccccc23)CC12CN(C(=O)[C@H]1CC1(C)C)C2)[C@@H](C)OCc1ccccc1 [I-143] | > 10 |
| CNC(=O)[C@@H](NC(=O)[C@@H]1CN(C(=O)c2cnn(Cc3ccccc3)c2)CC12CN(C(=O)[C@H]1CC1(C)C)C2)[C@@H](C)OCC1CCC1 [I-144A] | > 10 |
| CNC(=O)[C@@H](NC(=O)[C@H]1CN(C(=O)c2cnn(Cc3ccccc3)c2)CC12CN(C(=O)[C@H]1CC1(C)C)C2)[C@@H](C)OCC1CCC1 [I-144B] | > 10 |
| CNC(=O)[C@@H](NC(=O)[C@@H]1CN(C(=O)c2cnc(COC)s2)CC12CN(C(=O)[C@H]1CC1(C)C)C2)[C@@H](C)OCC1CCCCC1 [I-145A] | 0.5 to 5 |
| CNC(=O)[C@@H](NC(=O)[C@H]1CN(C(=O)c2cnc(COC)s2)CC12CN(C(=O)[C@H]1CC1(C)C)C2)[C@@H](C)OCC1CCCCC1 [I-145B] | > 10 |
| CNC(=O)[C@@H](NC(=O)[C@H]1CN(C(=O)c2nccs2)CC12CN(C(=O)[C@H]1CC1(C)C)C2)[C@@H](C)OCC1CCCCC1 [I-146] | > 10 |
| CO[C@H]1COCC[C@@H]1NC(=O)[C@H]1CN(C(=O)c2cnn(Cc3ccccc3)c2)CC12CN(C(=O)[C@H]1CC1(C)C)C2 [I-148B] | > 10 |
| C[C@@H](OCC1CCCCC1)[C@H](NC(=O)[C@H]1CN(C(=O)c2cnn(Cc3ccccc3)c2)CC12CN(C(=O)[C@H]1CC1(C)C)C2)C(=O)N1CCC(F)(F)CC1 [I-149B] | > 10 |
| C[C@@H](OCC1CCCCC1)[C@H](NC(=O)[C@H]1CN(C(=O)c2cn[nH]c2)CC12CN(C(=O)[C@H]1CC1(C)C)C2)C(=O)N1CCCCC1 [I-151B] | > 10 |
| C[C@@H](OCC1CCCCC1)[C@H](NC(=O)[C@H]1CN(C(=O)c2cnn(Cc3ccccc3)c2)CC12CN(C(=O)[C@H]1CC1(C)C)C2)C(=O)N1CC(C)(C)C1 [I-153B] | > 10 |
| C[C@@H](OCC1CCCCC1)[C@H](NC(=O)[C@H]1CN(C(=O)c2cn[nH]c2)CC12CN(C(=O)[C@H]1CC1(C)C)C2)C(=O)N1CCC(F)(F)CC1 [I-154B] | > 10 |
| CNC(=O)[C@H](CCCC1CCCCC1)NC(=O)[C@@H]1CN(C(=O)c2cnn(Cc3ccccc3)c2)CC12CN(C(=O)[C@H]1CC1(C)C)C2 [I-155A] | > 10 |
| CNC(=O)[C@H](CCCC1CCCCC1)NC(=O)[C@H]1CN(C(=O)c2cnn(Cc3ccccc3)c2)CC12CN(C(=O)[C@H]1CC1(C)C)C2 [I-155B] | > 10 |
| CNC(=O)[C@@H](NC(=O)[C@@H]1CN(C(=O)c2cnc(C)s2)CC12CN(C(=O)[C@H]1CC1(C)C)C2)[C@@H](C)OCC1CCCCC1 [I-156A] | 5 to 10 |
| CNC(=O)[C@@H](NC(=O)[C@H]1CN(C(=O)c2scnc2Cl)CC12CN(C(=O)[C@H]1CC1(C)C)C2)[C@@H](C)OCC1CCCCC1 [I-157B] | > 10 |
| Cc1noc([C@H](C)NC(=O)[C@@H]2CN(C(=O)c3cnn(Cc4ccccc4)c3)CC23CN(C(=O)[C@H]2CC2(C)C)C3)n1 [I-158A] | > 10 |
| Cc1noc([C@H](C)NC(=O)[C@H]2CN(C(=O)c3cnn(Cc4ccccc4)c3)CC23CN(C(=O)[C@H]2CC2(C)C)C3)n1 [I-158B] | > 10 |
| CNC(=O)[C@@H](NC(=O)C1CN(Cc2n[nH]c3ccccc23)CC12CN(C(=O)[C@H]1CC1(C)C)C2)[C@@H](C)OCc1ccccc1 (stereo partly shown) [I-159] | > 10 |
| CNC(=O)[C@@H](NC(=O)[C@@H]1CN(C(=O)c2scnc2C)CC12CN(C(=O)[C@H]1CC1(C)C)C2)[C@@H](C)OCC1CCCCC1 [I-160A] | 0.5 to 5 |
| CNC(=O)[C@@H](NC(=O)[C@H]1CN(C(=O)c2scnc2C)CC12CN(C(=O)[C@H]1CC1(C)C)C2)[C@@H](C)OCC1CCCCC1 [I-160B] | > 10 |

| SMILES | IC50 [µM] |
| --- | --- |
| CNC(=O)[C@@H](NC(=O)[C@@H]1CN(C(=O)c2cnc(C(F)(F)F)s2)CC12CN(C(=O)[C@H]1CC1(C)C)C2)[C@@H](C)OCC1CCCCC1 [I-161A] | > 10 |
| CNC(=O)[C@@H](NC(=O)[C@H]1CN(C(=O)c2cnc(C(F)(F)F)s2)CC12CN(C(=O)[C@H]1CC1(C)C)C2)[C@@H](C)OCC1CCCCC1 [I-161B] | > 10 |
| CNC(=O)[C@@H](NC(=O)[C@H]1CN(C(=O)c2sc(COC)nc2C)CC12CN(C(=O)[C@H]1CC1(C)C)C2)[C@@H](C)OCC1CCCCC1 [I-162B] | > 10 |
| CNC(=O)[C@@H](NC(=O)[C@H]1CN(C(=O)c2scnc2C(F)(F)F)CC12CN(C(=O)[C@H]1CC1(C)C)C2)[C@@H](C)OCC1CCCCC1 [I-163B] | > 10 |
| CNC(=O)[C@@H](NC(=O)[C@H]1CN(C(=O)c2cnn(Cc3ccccc3)c2)CC12CN(C(=O)[C@H]1CC1(C)C)C2)[C@H](C)OCC1CCCCC1 [I-165] | > 10 |
| CNC(=O)[C@@H](NC(=O)[C@H]1CN(C(=O)c2cnn(Cc3ccccc3)c2)CC12CN(C(=O)[C@H]1CC1(C)C)C2)[C@@H](C)OCC1CCCCCC1 [I-166B] | 0.5 to 5 |
| CNC(=O)[C@@H](NC(=O)[C@H]1CN(C(=O)c2cnn(Cc3ccc(F)cc3)c2)CC12CN(C(=O)[C@H]1CC1(C)C)C2)[C@@H](C)OCC1CCC(F)(F)CC1 [I-167] | > 10 |
| CC1(C)C[C@@H]1C(=O)N1CC2(CN(C(=O)c3cnn(Cc4ccccc4)c3)C[C@@H]2C(=O)Nc2ccc(Cc3ccccc3)nc2)C1 [I-168] | > 10 |
| CNC(=O)[C@@H](NC(=O)[C@@H]1CN(C(=O)c2nccs2)CC12CN(C(=O)[C@H]1CC1(C)C)C2)[C@@H](C)OCC1CCCCC1 [I-169] | > 10 |
| CNC(=O)[C@@H](NC(=O)[C@@H]1CN(C(=O)c2cnn(Cc3ccc(F)cc3)c2)CC12CN(C(=O)[C@H]1CC1(C)C)C2)[C@@H](C)OCC1CCC(F)(F)CC1 [I-170] | 0.5 to 5 |
| CNC(=O)[C@@H](NC(=O)[C@@H]1CN(C(=O)c2cnn(Cc3ccccc3)c2)CC12CN(C(=O)[C@H]1CC1(C)C)C2)C(C)(C)SCc1ccccc1 [I-171A, (S)-6-(1-benzyl-1H-pyrazole-4-carbonyl)-N—((R)-3-(benzylthio)-3-methyl-1-(methylamino)-1-oxobutan-2-yl)-2-((S)-2,2-dimethylcyclopropane-1-carbonyl)-2,6-diazaspiro[3.4]octane-8-carboxamide] | > 10 |
| CNC(=O)[C@@H](NC(=O)[C@H]1CN(C(=O)c2cnn(Cc3ccccc3)c2)CC12CN(C(=O)[C@H]1CC1(C)C)C2)C(C)(C)SCc1ccccc1 [I-171B] | > 10 |
| C[C@@H]1C[C@H](C)CN(C(=O)[C@@H](NC(=O)C2CN(C(=O)c3cncs3)CC23CN(C(=O)[C@H]2CC2(C)C)C3)[C@@H](C)OCC2CCCCC2)C1 (stereo partly shown) [I-172] | ≤ 0.5 |
| CNC(=O)[C@@H](NC(=O)[C@H]1CN(C(=O)c2cnn(Cc3ccccc3)c2)CC12CN(C(=O)C(C)(C)C)C2)[C@@H](C)OCC1CCCCC1 [I-174B] | > 10 |
| C[C@@H](OCc1ccccc1)[C@H](NC(=O)[C@H]1CN(C(=O)c2cnn(Cc3ccccc3)c2)CC12CN(C(=O)[C@H]1CC1(C)C)C2)C(N)=O [I-176B] | > 10 |
| CNC(=O)[C@@H](NC(=O)[C@H]1CN(C(=O)c2cnc(CC3CC3)s2)CC12CN(C(=O)[C@H]1CC1(C)C)C2)[C@@H](C)OCC1CCCCC1 [I-177B] | > 10 |
| CNC(=O)[C@@H](NC(=O)[C@H]1CN(C(=O)c2cnc(C3CC3)s2)CC12CN(C(=O)[C@H]1CC1(C)C)C2)[C@@H](C)OCC1CCCCC1 [I-178B] | > 10 |
| CN(C(=O)[C@H]1CCCN(C(=O)[C@@H]2CN(C(=O)c3cnn(Cc4ccccc4)c3)CC23CN(C(=O)[C@H]2CC2(C)C)C3)C1)C1CCCCC1 [I-179] | > 10 |
| CC1(C)C[C@@H]1C(=O)N1CC2(CN(C(=O)c3cnn(Cc4ccccc4)c3)C[C@H]2C(=O)N2CCC[C@H](C(=O)NC3CCCCC3)C2)C1 [I-180] | > 10 |
| CN(C(=O)[C@@H]1CCCN(C(=O)[C@@H]2CN(C(=O)c3cnn(Cc4ccccc4)c3)CC23CN(C(=O)[C@H]2CC2(C)C)C3)C1)C1CCCCC1 [I-181] | > 10 |
| CC1(C)C[C@@H]1C(=O)N1CC2(CN(C(=O)c3cnn(Cc4ccccc4)c3)C[C@H]2C(=O)N[C@H]2CCCN(C(=O)C3CCCCC3)C2)C1 [I-182] | 5 to 10 |
| CC1(C)C[C@@H]1C(=O)N1CC2(CN(C(=O)c3cnn(Cc4ccccc4)c3)C[C@H]2C(=O)N[C@H]2CCCN(CC3CCCCC3)C2)C1 [I-183] | > 10 |
| CNC(=O)[C@@H](NC(=O)[C@@H]1CN(C(=O)c2scnc2C2CC2)CC12CN(C(=O)[C@H]1CC1(C)C)C2)[C@@H](C)OCC1CCCCC1 [I-185A] | > 10 |
| CNC(=O)[C@@H](NC(=O)[C@H]1CN(C(=O)c2scnc2C2CC2)CC12CN(C(=O)[C@H]1CC1(C)C)C2)[C@@H](C)OCC1CCCCC1 [I-185B] | > 10 |
| CNC(=O)[C@@H](NC(=O)[C@@H]1CN(C(=O)c2cncs2)CC12CN(C(=O)C(C)(C)C)C2)[C@@H](C)OCC1CCCCC1 [I-186A] | 0.5 to 5 |
| CNC(=O)[C@@H](NC(=O)[C@H]1CN(C(=O)c2cncs2)CC12CN(C(=O)C(C)(C)C)C2)[C@@H](C)OCC1CCCCC1 [I-186B] | > 10 |
